Structures can show the parent of a compound that is named as a salt. Where two headings read alike, the source gives them in different places.
Target: T1, G1 APOL1 (Homo sapiens, UniProt O14791, I384M/S342G)
T1 construct: expressed in transfected cells
T1 sequence (O14791 28-398 S342G/I384M): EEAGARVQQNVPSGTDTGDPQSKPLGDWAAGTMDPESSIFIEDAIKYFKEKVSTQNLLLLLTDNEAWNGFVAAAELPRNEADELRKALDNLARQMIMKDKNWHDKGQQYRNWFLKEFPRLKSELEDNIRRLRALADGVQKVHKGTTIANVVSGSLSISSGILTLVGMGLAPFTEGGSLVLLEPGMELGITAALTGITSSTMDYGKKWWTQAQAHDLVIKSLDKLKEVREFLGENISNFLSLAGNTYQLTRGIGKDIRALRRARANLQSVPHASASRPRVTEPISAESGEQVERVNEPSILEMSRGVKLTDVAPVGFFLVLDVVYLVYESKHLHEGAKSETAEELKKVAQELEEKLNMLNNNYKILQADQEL
Experiment: Acute APOL1 Thallium Assay with inducible stable clones of HEK 293 cells
Type: cell-based
Conditions: HEK 293 T-Rex inducible stable clone expressing G1 APOL1
Method in brief: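 A tetracycline-inducible HEK293 T-Rex clone (G1 DC3.25) expressing G1 APOL1 was plated at 26,000 cells/well, with tetracycline added at plating to induce expression. Cells were loaded with an AM-ester thallium-sensitive dye and stimulated with Tl+. Pore activity was read as the FLIPR Tetra fluorescence increase from Tl+ influx.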

[1] = read-out: Thallium Assay (IC50)

SMILES | IC50 [1] | IC50 (Thallium Assay (IC50))
C[C@H](O)C(=O)N1CC(Cc2c(-c3ccc(F)cc3)[nH]c3c(F)cc(F)cc23)C1 [Compound 438] | < 250 nM | 
CN1CCCC(CC(=O)N[C@H]2C[C@H](c3c(-c4ccc(F)cc4)[nH]c4c(F)cc(F)cc43)C2)C1 (stereo partly drawn) [Compound 104] | > 1000 nM | 
N#CCC(=O)NC[C@H]1C[C@@H](c2c(-c3ccc(F)cc3)[nH]c3c(F)cc(F)cc32)C1 [Compound 230] | > 1000 nM | 
O=C1CC(C(=O)N[C@H]2C[C@H](c3c(-c4ccc(F)cc4)[nH]c4c(F)cc(F)cc43)C2)CN1 (stereo partly drawn) [Compound 140] | > 1000 nM | 
O=C(NC[C@H]1C[C@H](c2c(-c3ccc(F)cc3)[nH]c3c(F)cc(F)cc32)C1)[C@H]1NCC[C@H]1O [Compound 229] | > 1000 nM | 
O=S(=O)(NC[C@H]1C[C@H](c2c(-c3ccc(F)cc3)[nH]c3c(F)cc(F)cc32)C1)NC1(CO)CCC1 [Compound 355] | 250 to 1000 nM | 
CC(F)(F)C(=O)N[C@H]1C[C@@H](c2c(-c3ccc(F)cc3)[nH]c3c(F)cc(F)cc32)C1 [Compound 68] | 250 to 1000 nM | 
CC(=O)N[C@@H](CO)C(=O)NC[C@H]1C[C@H](c2c(-c3ccc(F)cc3)[nH]c3c(F)cc(F)cc32)C1 [Compound 224] | 250 to 1000 nM | 
CCCS(=O)(=O)N[C@H]1C[C@@H](c2c(-c3ccc(F)cc3)[nH]c3c(F)cc(F)cc32)C1 [Compound 79, N-((1s,3s)-3-(5,7-difluoro-2-(4-fluorophenyl)-1H-indol-3-yl)cyclobutyl)propane-1-sulfonamide] | > 1000 nM | 
OCC(CO)NCC1CC(c2c(-c3ccc(F)cc3)[nH]c3c(F)cc(F)cc23)C1 (stereo not drawn) [Compound 376] | 250 to 1000 nM | 
CCS(=O)(=O)NCC(=O)NC[C@H]1C[C@@H](c2c(-c3ccc(F)cc3)[nH]c3c(F)cc(F)cc32)C1 [Compound 263] | > 1000 nM | 
O=C(CC1CC(F)(F)C1)N[C@H]1C[C@H](c2c(-c3ccc(F)cc3)[nH]c3c(F)cc(F)cc32)C1 [Compound 98] | > 1000 nM | 
NC(=O)C1(C(=O)N[C@H]2C[C@H](c3c(-c4ccc(F)cc4)[nH]c4c(F)cc(F)cc43)C2)CC1 [Compound 446, N^1′-[3-[5,7-difluoro-2-(4-fluorophenyl)-1H-indol-3-yl]cyclobutyl]cyclopropane-1,1-dicarboxamide] | 250 to 1000 nM | 
NCC1(F)CC(c2c(-c3ccc(F)cc3)[nH]c3c(F)cc(F)cc23)C1 (stereo not drawn) [Compound 428, [3-[5,7-difluoro-2-(4-fluorophenyl)-1H-indol-3-yl]-1-fluoro-cyclobutyl]methanamine] | 250 to 1000 nM | 
O=C1C[C@H](C(=O)NC[C@H]2C[C@H](c3c(-c4ccc(F)cc4)[nH]c4c(F)cc(F)cc43)C2)N1 [Compound 237] | > 1000 nM | 
NCCNCC1CC(c2c(-c3ccc(F)cc3)[nH]c3c(F)cc(F)cc23)C1 (stereo not drawn) [Compound 388] | 250 to 1000 nM | 
CS(=O)(=O)CCCC(=O)N[C@H]1C[C@H](c2c(-c3ccc(F)cc3)[nH]c3c(F)cc(F)cc32)C1 [Compound 99] | > 1000 nM | 
CC(C(=O)NC[C@H]1C[C@@H](c2c(-c3ccc(F)cc3)[nH]c3c(F)cc(F)cc32)C1)N(C)C (mixture of isomers) [Compound 281] | > 1000 nM | 
O=S(=O)(NC[C@@H](O)CO)NC[C@H]1C[C@H](c2c(-c3ccc(F)cc3)[nH]c3c(F)cc(F)cc32)C1 [Compound 352] | > 1000 nM | 
CC(=O)N1CC[C@H](C(=O)NC[C@H]2C[C@H](c3c(-c4ccc(F)cc4)[nH]c4c(F)cc(F)cc43)C2)C1 [Compound 274] | > 1000 nM | 
O=S(=O)(NC[C@H]1C[C@H](c2c(-c3ccc(F)cc3)[nH]c3c(F)cc(F)cc32)C1)c1n[nH]c2ncccc12 [Compound 419] | > 1000 nM | 
Cc1ccc(C(=O)NC2CC(Cc3c(-c4ccc(F)cc4)[nH]c4c(F)cc(F)cc34)C2)[nH]1 (stereo not drawn) [Compound 172] | > 1000 nM | 
Cn1ccc(NCC2CC(c3c(-c4ccc(F)cc4)[nH]c4c(F)cc(F)cc34)C2)n1 (stereo not drawn) [Compound 399] | > 1000 nM | 
O=S(=O)(N[C@H]1C[C@@H](c2c(-c3ccc(F)cc3)[nH]c3c(F)cc(F)cc32)C1)c1c[nH]cn1 [Compound 80] | > 1000 nM | 
NC(=O)CC(=O)NC[C@H]1C[C@H](c2c(-c3ccc(F)cc3)[nH]c3c(F)cc(F)cc32)C1 [Compound 450, N^1-(((1r,3r)-3-(5,7-difluoro-2-(4-fluorophenyl)-1H-indol-3-yl)cyclobutyl)methyl)malonamide] | 250 to 1000 nM | 
CC(C)(C)OC(=O)N1CCC[C@@H]1C(=O)NC[C@H]1C[C@H](c2c(-c3ccc(F)cc3)[nH]c3c(F)cc(F)cc32)C1 [Compound 279] |  | > 1000 nM
O=C(NC[C@H]1C[C@H](c2c(-c3ccc(F)cc3)[nH]c3c(F)cc(F)cc32)C1)C1(O)CC1 [Compound 283] | > 1000 nM | 

SMILES | IC50 [1] | IC50 (Thallium Assay (IC50))
O=S(=O)(NC[C@H]1C[C@H](c2c(-c3ccc(F)cc3)[nH]c3c(F)cc(F)cc32)C1)N[C@@H]1CCC[C@H]1O [Compound 348] | > 1000 nM | 
O=C1CC(C(=O)N[C@H]2C[C@@H](c3c(-c4ccc(F)cc4)[nH]c4c(F)cc(F)cc43)C2)CC(=O)N1 [Compound 70] | > 1000 nM | 
O=C1NCCC1CNS(=O)(=O)NC[C@H]1C[C@H](c2c(-c3ccc(F)cc3)[nH]c3c(F)cc(F)cc32)C1 (stereo partly drawn) [Compound 345] | > 1000 nM | 
NCCCNCC1CC(c2c(-c3ccc(F)cc3)[nH]c3c(F)cc(F)cc23)C1 (stereo not drawn) [Compound 409] | > 1000 nM | 
CC[C@@H](CO)NCC1CC(c2c(-c3ccc(F)cc3)[nH]c3c(F)cc(F)cc23)C1 (stereo partly drawn) [Compound 395] | > 1000 nM | 
CO[C@@H](C)C(=O)NC[C@H]1C[C@H](c2c(-c3ccc(F)cc3)[nH]c3c(F)cc(F)cc32)C1 [Compound 270] | > 1000 nM | 
C[C@H](O)[C@H](CO)NCC1CC(c2c(-c3ccc(F)cc3)[nH]c3c(F)cc(F)cc23)C1 (stereo partly drawn) [Compound 392] | > 1000 nM | 
CC(CC(=O)NC[C@H]1C[C@@H](c2c(-c3ccc(F)cc3)[nH]c3c(F)cc(F)cc32)C1)N1CCOCC1 (mixture of isomers) [Compound 318] | > 1000 nM | 
O=C(CN1CCCC1)NC[C@H]1C[C@@H](c2c(-c3ccc(F)cc3)[nH]c3c(F)cc(F)cc32)C1 [Compound 327] | > 1000 nM | 
O=C(N1CC(Cc2c(-c3ccc(F)cc3)[nH]c3c(F)cc(F)cc23)C1)C1(CO)CC1 [Compound 437, [3-[[5,7-difluoro-2-(4-fluorophenyl)-1H-indol-3-yl]methyl]azetidin-1-yl]-[1-(hydroxymethyl)cyclopropyl]methanone (Trifluoroacetate salt)] | 250 to 1000 nM | 
CC(C)(O)CC(=O)NC1CC(Cc2c(-c3ccc(F)cc3)[nH]c3c(F)cc(F)cc23)C1 (stereo not drawn) [Compound 160, N-[3-[[5,7-difluoro-2-(4-fluorophenyl)-1H-indol-3-yl]methyl]cyclobutyl]-3-hydroxy-3-methylbutanamide] | 250 to 1000 nM | 
COC1(CC(=O)NC[C@H]2C[C@@H](c3c(-c4ccc(F)cc4)[nH]c4c(F)cc(F)cc43)C2)CCC1 [Compound 324] | > 1000 nM | 
O=C(CC1CC(F)(F)C1)N[C@H]1C[C@@H](c2c(-c3ccc(F)cc3)[nH]c3c(F)cc(F)cc32)C1 [Compound 31] | > 1000 nM | 
CS(=O)(=O)NCC(=O)N[C@H]1C[C@H](c2c(-c3ccc(F)cc3)[nH]c3c(F)cc(F)cc32)C1 [Compound 107] | > 1000 nM | 
C[C@@H](CO)NCC1CC(c2c(-c3ccc(F)cc3)[nH]c3c(F)cc(F)cc23)C1 (stereo partly drawn) [Compound 389] | > 1000 nM | 
N#CCC(=O)N[C@H]1C[C@@H](c2c(-c3ccc(F)cc3)[nH]c3c(F)cc(F)cc32)C1 [Compound 67] | > 1000 nM | 
CC(C(=O)N[C@H]1C[C@H](c2c(-c3ccc(F)cc3)[nH]c3c(F)cc(F)cc32)C1)n1ccnc1 (mixture of isomers) [Compound 105] | > 1000 nM | 
O=C(CC1COC1)N[C@H]1C[C@@H](c2c(-c3ccc(F)cc3)[nH]c3c(F)cc(F)cc32)C1 [Compound 50] | > 1000 nM | 
CC1(C(=O)NC[C@H]2C[C@@H](c3c(-c4ccc(F)cc4)[nH]c4c(F)cc(F)cc43)C2)CC(=O)C1 [Compound 284] | > 1000 nM | 
O=C(CO)N[C@H]1C[C@H](c2c(-c3ccc(F)cc3)[nH]c3c(F)cc(F)cc32)C1 [Compound 429, N-((1r,3r)-3-(5,7-difluoro-2-(4-fluorophenyl)-1H-indol-3-yl)cyclobutyl)-2-hydroxyacetamide] | 250 to 1000 nM | 
NS(=O)(=O)CCC(=O)NC[C@H]1C[C@@H](c2c(-c3ccc(F)cc3)[nH]c3c(F)cc(F)cc32)C1 [Compound 232] | > 1000 nM | 
O=C1CC(CC(=O)N[C@H]2C[C@H](c3c(-c4ccc(F)cc4)[nH]c4c(F)cc(F)cc43)C2)CC(=O)N1 [Compound 132] | > 1000 nM | 
CC(CO)(CO)NS(=O)(=O)NC[C@H]1C[C@H](c2c(-c3ccc(F)cc3)[nH]c3c(F)cc(F)cc32)C1 [Compound 365] | > 1000 nM | 
O=C1CCC(CNS(=O)(=O)NC[C@H]2C[C@H](c3c(-c4ccc(F)cc4)[nH]c4c(F)cc(F)cc43)C2)N1 (stereo partly drawn) [Compound 340] | > 1000 nM | 
CN(C)CC(=O)NC[C@H]1C[C@@H](c2c(-c3ccc(F)cc3)[nH]c3c(F)cc(F)cc32)C1 [Compound 320] | > 1000 nM | 
C[C@@H](O)CNS(=O)(=O)NC[C@H]1C[C@H](c2c(-c3ccc(F)cc3)[nH]c3c(F)cc(F)cc32)C1 [Compound 351] | > 1000 nM | 
O=C(CCO)N[C@H]1C[C@H](c2c(-c3ccc(F)cc3)[nH]c3c(F)cc(F)cc32)C1 [Compound 95] | < 250 nM | 
